From patent US9137998B2, “Pesticidal compositions and related methods” (DOW AGROSCIENCES LLC, priority 2013, dated 2015)

What was measured:
[1] = system: Green Peach Aphid (Myzus persicae) (GPA) (MYZUPE); test: Bioassay for Green Peach Aphid (GPA), foliar spray on cabbage seedlings; type: in vivo; conditions: Myzus persicae, 72 h, 200 ppm foliar spray, graded after three days, Abbott corrected % control, read-out: % Control (or Mortality) rating, GPA
Procedure: Cabbage seedlings grown in 3-inch pots, with 2-3 small (3-5 cm) true leaves, were used as test substrate. The seedlings were infested with 20-50 GPA (wingless adult and nymph stages) one day prior to chemical application. Four pots with individual seedlings were used for each treatment. Test compounds (2 mg) were dissolved in 2 mL of acetone/methanol (1:1) solvent, forming stock solutions of 1000 ppm test compound. The stock solutions were diluted 5× with 0.025% Tween 20 in H2O to obtain the solution at 200 ppm test compound. A hand-held aspirator-type sprayer was used for spraying a solution to both sides of […] leaves until runoff. Reference plants (solvent check) were sprayed with the diluent only containing 20% by volume of acetone/methanol (1:1) solvent. Treated plants were held in a holding room for three days at approximately 25° C. and ambient relative humidity (RH) prior to grading. Evaluation was conducted by counting the number of live aphids per plant under a microscope. Percent control was measured by using Abbott's correction formula (W. S. Abbott, “A Method of Computing the Effectiveness of an Insecticide” J. Econ. Entomol. 18 (1925), pp. 265-267) as follows. Corrected % Control=100*(X−Y)/X
X=No. of live aphids on solvent check plants and
Y=No. of live aphids on treated plants
Biological Data for Green Peach Aphid (GPA) (MYZUPE) and Sweetpotato Whitefly-crawler (WF) (BEMITA)” (See Table Section).

[2] = system: Sweetpotato Whitefly-Crawler (Bemisia tabaci) (WF) (BEMITA); test: Insecticidal test for Sweetpotato Whitefly-crawler (WF) in foliar spray assay on cotton plants; type: in vivo; conditions: Bemisia tabaci, 216 h, 200 ppm foliar spray, graded after 9 days, Abbott corrected % control, read-out: % Control (or Mortality) rating, WF
Procedure: Cotton plants (Gossypium hirsutum) grown in 3-inch pots, with 1 small (4-5 cm) true leaves, were used as test substrate. The plants were infested with 200-400 whitefly eggs 4-5 days prior to chemical application. Four pots with individual plants were used for each treatment. Test compounds (2 mg) were dissolved in 1 mL of acetone solvent, forming stock solutions of 2000 ppm test compound. The stock solutions were diluted 10× with 0.025% Tween 20 in H2O (diluents) to obtain the solution at 200 ppm test compound. A hand-held aspirator-type sprayer was used for spraying a solution to both sides of cotton leaves until runoff. Reference plants (solvent check) were sprayed with the diluent only containing 10% by volume of acetone solvent. Treated plants were held in a holding room for 9 days at approximately 25° C. and ambient relative humidity (RH) prior to grading. Evaluation was conducted by counting the number of live 3-4 nymph stage per plant under a microscope. Percent control was measured by using Abbott's correction formula (W. S. Abbott, “A Method of Computing the Effectiveness of an Insecticide” J. Econ. Entomol. 18 (1925), pp. 265-26′7) as follows. Corrected % Control=100*(X−Y)/X
X=No. of live nymphs on solvent check plants and
Y=No. of live nymphs on treated plants. […]

Which melting point does the source give for `C#CCN(C(=O)OC(C)(C)C)c1sc(Br)nc1C` [CA4, tert-Butyl (2-bromo-4-methylthiazol-5-yl)(prop-2-yn-1-yl)carbamate] here?
Its melting point is 82 to 86 °C.

Which melting point does the source give for `C#CCN(C(=O)OC(C)(C)C)c1sc(-c2cncnc2)nc1Cl` [CA10, tert-Butyl (4-chloro-2-(pyrimidin-5-yl)thiazol-5-yl)(prop-2-yn-1-yl) carbamate] here?
Its melting point is 80 to 83 °C.

Which results are given for `C#CCN(C(=O)CCSCC1CC1(F)F)c1sc(-c2cccnc2)nc1C` (centres unmarked) [Compound P10, 3-(((2,2-Difluorocyclopropyl)methyl)thio)-N-(4-methyl-2-(pyridin-3-yl)thiazol-5-yl)-N-(prop-2-yn-1-yl)propanamide]?
mortality at 200 ppm [1]: 80 to 100%; mortality at 200 ppm [2]: 80 to 100%

Which results are given for `CC#CCN(C(=O)CCSCCC(F)(F)F)c1sc(-c2cccnc2)nc1C` [Compound P16, N-(But-2-yn-1-yl)-N-(4-methyl-2-(pyridin-3-yl)thiazol-5-yl)-3-((3,3,3-trifluoropropyl)thio) propanamide]?
mortality at 200 ppm [1]: 80 to 100%; mortality at 200 ppm [2]: 80 to 100%

What does the source list for `CC#CCN(C(=O)CCSC)c1sc(-c2cccnc2)nc1C` [Compound P17, N-(But-2-yn-1-yl)-N-(4-methyl-2-(pyridin-3-yl)thiazol-5-yl)-3-(methylthio)propanamide]?
mortality at 200 ppm [1]: 80 to 100%; mortality at 200 ppm [2]: 80 to 100%

With `C#CCN(C(=O)CCSCCC(F)(F)F)c1sc(-c2cncc(F)c2)nc1C` [Compound P19, N-(2-(5-Fluoropyridin-3-yl)-4-methylthiazol-5-yl)-N-(prop-2-yn-1-yl)-3-((3,3,3-trifluoropropyl)thio)propanamide] as the compound, how does the mortality at 200 ppm [1] read?
Its mortality at 200 ppm is 80 to 100%.

And the mortality at 200 ppm [2]?
The mortality at 200 ppm was 80 to 100%.

What does the source list for `C#CCN(C(=O)CCSCC1CC1(F)F)c1sc(-c2cncc(F)c2)nc1C` (centres unmarked) [Compound P22, 3-(((2,2-Difluorocyclopropyl)methyl)thio)-N-(2-(5-fluoropyridin-3-yl)-4-methylthiazol-5-yl)-N-(prop-2-yn-1-yl)propanamide]?
mortality at 200 ppm [1]: 80 to 100%; mortality at 200 ppm [2]: 80 to 100%

Which mortality at 200 ppm [1] does the source give for `C#CC(C)N(C(=O)CCSCC1CC1(F)F)c1sc(-c2cccnc2)nc1C` (centres unmarked) [Compound P31, N-(But-3-yn-2-yl)-3-(((2,2-difluorocyclopropyl)methyl)thio)-N-(4-methyl-2-(pyridin-3-yl)thiazol-5-yl)propanamide] here?
Its mortality at 200 ppm is 80 to 100%.

What about the mortality at 200 ppm [2] of the same compound?
Its mortality at 200 ppm is 80 to 100%.

Which results are given for `C#CC(C)N(C(=O)CCSCCC(F)(F)F)c1sc(-c2cccnc2)nc1C` (centres unmarked) [Compound P32, N-(But-3-yn-2-yl)-N-(4-methyl-2-(pyridin-3-yl)thiazol-5-yl)-3-((3,3,3-trifluoropropyl)thio) propanamide]?
mortality at 200 ppm [1]: 80 to 100%; mortality at 200 ppm [2]: 80 to 100%

For `C#CCN(C(=O)CCSCCC(F)(F)F)c1sc(-c2cccnc2)nc1Cl` [FA1, N-(4-Chloro-2-(pyridin-3-yl)thiazol-5-yl)-N-(prop-2-yn-1-yl)-3-((3,3,3-trifluoropropyl)thio) propanamide], which mortality at 200 ppm [1] is on record?
Its mortality at 200 ppm is 80 to 100%.

And the mortality at 200 ppm [2]?
The mortality at 200 ppm was 80 to 100%.

Which mortality at 200 ppm [1] does the source give for `C#CCN(C(=O)CCSCCC(F)(F)F)c1sc(-c2cncc(F)c2)nc1Cl` [FA2, N-(4-Chloro-2-(5-fluoropyridin-3-yl)thiazol-5-yl)-N-(prop-2-yn-1-yl)-3-((3,3,3-trifluoropropyl)thio)propanamide] here?
Its mortality at 200 ppm is 80 to 100%.

What about the mortality at 200 ppm [2] of the same compound?
Its mortality at 200 ppm is 80 to 100%.

What does the source list for `C#CCN(C(=O)CCSCCC(F)(F)F)c1sc(-c2cncnc2)nc1Cl` [FA3, N-(4-chloro-2-(pyrimidin-5-yl)thiazol-5-yl)-N-(prop-2-yn-1-yl)-3-((3,3,3-trifluoropropyl)thio)propanamide]?
mortality at 200 ppm [1]: 80 to 100%; mortality at 200 ppm [2]: 80 to 100%

With `C#CCN(C(=O)CCSC)c1sc(-c2cncc(F)c2)nc1C` [FA4, N-(2-(5-Fluoropyridin-3-yl)-4-methylthiazol-5-yl)-3-(methylthio)-N-(prop-2-yn-1-yl)propanamide] as the compound, how does the mortality at 200 ppm [1] read?
Its mortality at 200 ppm is 80 to 100%.

And the mortality at 200 ppm [2]?
The mortality at 200 ppm was 80 to 100%.

With `C#CCN(C(=O)C(C)CSC)c1sc(-c2cncc(F)c2)nc1C` (centres unmarked) [FA5, N-(2-(5-Fluoropyridin-3-yl)-4-methylthiazol-5-yl)-2-methyl-3-(methylthio)-N-(prop-2-yn-1-yl) propanamide] as the compound, how does the mortality at 200 ppm [1] read?
The mortality at 200 ppm was 80 to 100%.

What about the mortality at 200 ppm [2] of the same compound?
Its mortality at 200 ppm is 80 to 100%.

For `C#CCN(C(=O)CC[S+]([O-])CCC(F)(F)F)c1sc(-c2cccnc2)nc1Cl` (centres unmarked) [FA6, N-(4-chloro-2-(pyridin-3-yl)thiazol-5-yl)-N-(prop-2-yn-1-yl)-3-((3,3,3trifluoropropyl)sulfinyl)propanamide], which mortality at 200 ppm [1] is on record?
The mortality at 200 ppm was 80 to 100%.

What about the mortality at 200 ppm [2] of the same compound?
Its mortality at 200 ppm is 80 to 100%.

For `C#CCN(C(=O)CC[S+]([O-])CCC(F)(F)F)c1sc(-c2cncc(F)c2)nc1Cl` (centres unmarked) [FA7, N-(4-Chloro-2-(5-fluoropyridin-3-yl)thiazol-5-yl)-N-(prop-2-yn-1-yl)-3-((3,3,3-trifluoropropyl)sulfinyl)propanamide], which mortality at 200 ppm [1] is on record?
Its mortality at 200 ppm is 80 to 100%.

What about the mortality at 200 ppm [2] of the same compound?
The mortality at 200 ppm was 80 to 100%.

For `C#CCN(C(=O)CC[S+]([O-])CCC(F)(F)F)c1sc(-c2cncnc2)nc1Cl` (centres unmarked) [FA8, N-(4-Chloro-2-(pyrimidin-5-yl)thiazol-5-yl)-N-(prop-2-yn-1-yl)-3-((3,3,3-trifluoropropyl)sulfinyl)propanamide], which mortality at 200 ppm [1] is on record?
The mortality at 200 ppm was 80 to 100%.

What about the mortality at 200 ppm [2] of the same compound?
The mortality at 200 ppm was 80 to 100%.

For `C#CCN(C(=O)CC[S+]([O-])CC1CC1(F)F)c1sc(-c2cccnc2)nc1C` (centres unmarked) [FA9, 3-(((2,2-Difluorocyclopropyl)methyl)sulfinyl)-N-(4-methyl-2-(pyridin-3-yl)thiazol-5-yl)-N-(prop-2-yn-1-yl)propanamide], which mortality at 200 ppm [1] is on record?
Its mortality at 200 ppm is 80 to 100%.

And the mortality at 200 ppm [2]?
Its mortality at 200 ppm is 80 to 100%.

Which results are given for `C#CCN(C(=O)CCS(=O)(=O)CCC(F)(F)F)c1sc(-c2cccnc2)nc1Cl` [FA10, N-(4-chloro-2-(pyridin-3-yl)thiazol-5-yl)-N-(prop-2-yn-1-yl)-3-((3,3,3-trifluoropropyl)sulfonyl)propanamide]?
mortality at 200 ppm [1]: 80 to 100%; mortality at 200 ppm [2]: 80 to 100%

For `C#CCN(C(=O)CCS(=O)(=O)CCC(F)(F)F)c1sc(-c2cncc(F)c2)nc1Cl` [FA11, N-(4-Chloro-2-(5-fluoropyridin-3-yl)thiazol-5-yl)-N-(prop-2-yn-1-yl)-3-((3,3,3-trifluoropropyl)sulfonyl)propanamide], which mortality at 200 ppm [1] is on record?
The mortality at 200 ppm was 80 to 100%.

What about the mortality at 200 ppm [2] of the same compound?
Its mortality at 200 ppm is 80 to 100%.

Which mortality at 200 ppm [1] does the source give for `C#CCN(C(=O)CCS(=O)(=O)CCC(F)(F)F)c1sc(-c2cncnc2)nc1Cl` [FA12, N-(4-Chloro-2-(pyrimidin-5-yl)thiazol-5-yl)-N-(prop-2-yn-1-yl)-3-((3,3,3-trifluoropropyl)sulfonyl) propanamide] here?
The mortality at 200 ppm was 80 to 100%.

What about the mortality at 200 ppm [2] of the same compound?
The mortality at 200 ppm was 80 to 100%.

For `C#CCN(C(=O)CCS(=O)(=O)CC1CC1(F)F)c1sc(-c2cccnc2)nc1C` (centres unmarked) [FA13, 3-(((2,2-Difluorocyclopropyl)methyl)sulfonyl)-N-(4-methyl-2-(pyridin-3-yl)thiazol-5-yl)-N-(prop-2-yn-1-yl)propanamide], which mortality at 200 ppm [1] is on record?
Its mortality at 200 ppm is 80 to 100%.

And the mortality at 200 ppm [2]?
The mortality at 200 ppm was 80 to 100%.

With `CC#CCN(C(=O)CCSCC1CC1(F)F)c1sc(-c2cccnc2)nc1C` (centres unmarked) [FA14, N-(But-2-yn-1-yl)-3-(((2,2-difluorocyclopropyl)methyl)thio)-N-(4-methyl-2-(pyridin-3-yl)thiazol-5-yl)propanamide] as the compound, how does the mortality at 200 ppm [1] read?
The mortality at 200 ppm was 80 to 100%.

What about the mortality at 200 ppm [2] of the same compound?
Its mortality at 200 ppm is 80 to 100%.
